Source: patent publication US20260224537A1, “METHODS AND COMPOSITIONS FOR TREATING GLUCOCORTICOID-MEDIATED DISEASES” (SPARROW PHARMACEUTICALS, INC., priority 2023, published 2026)
“Also recorded” adds a separate entry of the source. Values belong to the compound of their own block, whether it stands above or below them.

Tests used:
[1] = test system: healthy adults; conditions: dexamethasone 3 mg, 5 days; cited from earlier work
[2] = test system: patients with polymyalgia rheumatica (PMR); assay: Clinical trial in polymyalgia rheumatica: PMR disease control, adverse events of PMR aggravated and relapse (Criterion 1); assay type: in vivo, human; conditions: 2 weeks daily treatment
Procedure: (§1) In an ongoing clinical trial, patients with polymyalgia rheumatica (PMR), who receive prednisolone 10 mg daily for at least 7 days prior to Day 1, are in remission or have low disease activity, and who meet the inclusion and exclusion criteria (Table 1), enter a 4-week treatment period.
(§2) From Day 1 to Week 2, participants continue to receive prednisolone 10 mg and placebo for SPI-62, each daily. From Week 2 to Week 4, participants receive prednisolone, at a dose or randomized doses assigned per cohort, and SPI-62 6 mg, each daily. The order of treatments are not randomized due to the long pharmacological half-life of SPI-62, which is understood to be approximately 4-6 weeks based on data collected up to 2-2.5 weeks after cessation of SPI-62 administration in prior clinical trials. Participants are blinded to the order of treatments. Participants are enrolled in cohorts of approximately 12. • During Cohort 1, 12 participants received prednisolone 10 mg with SPI-62 6 mg. Two participants were erroneously dosed with SPI-62 on Day 1. […] Two participants' prednisolone dose was increased to 15 mg prior to Week 4 following adverse events of PMVR aggravated. Those two participants' data are represented in the Figures in the PRL15 CLO6 regimen. […]

[3] = test system: patients with polymyalgia rheumatica (PMR); assay: Clinical trial in PMR: assessment of prednisolone toxicity (bone turnover, lipids, glycemic control, coagulation, ECG heart rate, HPA axis); assay type: in vivo, human
Procedure: as §1
(§3) From Day 1 to Week 2, participants continue to receive prednisolone 10 mg and placebo for SPI-62, each daily. From Week 2 to Week 4, participants receive prednisolone, at a dose or randomized doses assigned per cohort, and SPI-62 6 mg, each daily. The order of treatments are not randomized due to the long pharmacological half-life of SPI-62, which is understood to be approximately 4-6 weeks based on data collected up to 2-2.5 weeks after cessation of SPI-62 administration in prior clinical trials. Participants are blinded to the order of treatments. Participants are enrolled in cohorts of approximately 12. • During Cohort 1, 12 participants received prednisolone 10 mg with SPI-62 6 mg. Two participants were erroneously dosed with SPI-62 on Day 1. […] Two participants' prednisolone dose was increased to 15 mg prior to Week 4 following adverse events of PMVR aggravated. Those two participants' data are represented in the Figures in the PRL15 CLO6 regimen. […] Those two participants' data are represented in the Figures only in the PRL10 regimen. • During Cohort 2, 12 participants received prednisolone 15 mg (50% dose adjustment) with SPI-62 6 mg. All also received prednisolone 10 mg with placebo for SPI-62. • During Cohort 3, 11 participants received prednisolone 20 mg (100% dose adjustment from Cohort 1) with clofutriben (i.e., SPI-62) 6 mg. All also received prednisolone 10 mg with placebo for SPI-62. […] That participant's data are represented in the Figures in the PRL10 and PRL10 CLO6 regimens. • During Cohort 4, 11 participants received prednisolone 30 mg (100% dose adjustment from Cohort 2) with clofutriben (i.e., SPI-62) 6 mg. • Two additional participants dropped out of the trial before they received clofutriben. Those participants' data are represented in the Figures in the PRL10 regimen.
FIGS. 1-26 compare the change from baseline during two weeks of treatment with 10 mg prednisolone and placebo (PRL 10), 10 mg prednisolone and 6 mg clofutriben (PRL10 CLO6), 15 mg prednisolone and 6 mg clofutriben (PRL15 CLO6), 20 mg prednisolone and 6 mg clofutriben (PRL20 CLO6), and 30 mg prednisolone and 6 mg clofutriben (PRL30 CLO6). The central horizontal line of each diamond represents the mean of the observed data. The top and bottom vertices represent the 95% confidence interval of the mean. The top and bottom ‘overlap lines’ would indicate statistically significant difference between groups under assumptions of normal data distribution, equal variances, and lack of covariance with baseline value. As one or more of those assumptions is violated for many of the datasets, statistical significance should not be inferred based on the overlap lines in FIGS. 1-26.
Assessment of prednisolone toxicity focused first on bone turnover biomarkers, which were expected to be the most sensitive based on published evidence of substantial changes within a few days of glucocorticoid administration that correlated with hepatic HSD-1 activity. SPI-62 was associated with changes consistent with an anti-GIOP phenotype, i.e., increases of the bone formation biomarkers OC and P1NP (FIG. 12), and decreases of the bone resorption biomarker CTX (FIG. 13).
Whether GC-associated HDL increase should be considered GC toxicity is not clear. […] About half of the participants (represented by colored circles) were on cholesterol-lowering agents, while no participants received any additional triglyceride lowering agents. The improvements in cholesterol were attributed mainly to a decrease in HDL, representing a reversal of the HDL-increasing effect of GC by clofutriben. […]

[4] = test system: patients with polymyalgia rheumatica (PMR); assay: Clinical trial in PMR: circulating cell counts (lymphoid lineages by quantitative PCR; monocytes, neutrophils, platelets); assay type: in vivo, human
Procedure: as §1, §3
FIGS. 1-26 compare the change from baseline during two weeks of treatment with 10 mg prednisolone and placebo (PRL 10), 10 mg prednisolone and 6 mg clofutriben (PRL10 CLO6), 15 mg prednisolone and 6 mg clofutriben (PRL15 CLO6), 20 mg prednisolone and 6 mg clofutriben (PRL20 CLO6), and 30 mg prednisolone and 6 mg clofutriben (PRL30 CLO6). The central horizontal line of each diamond represents the mean of the observed data. The top and bottom vertices represent the 95% confidence interval of the mean. […]
Counts of several circulating lymphoid cell types were determined by quantitative PCR for lineage-specific DNA methylation patterns. […]

[5] = test system: patients with polymyalgia rheumatica (PMR); assay: Clinical trial in PMR: acute phase markers CRP, ESR, fibrinogen; assay type: in vivo, human; conditions: change from baseline after 2 weeks daily treatment
Procedure: as §1
as §2, with “aggravated.” for “aggravated. Those two participants' data are represented in the Figures in the PRL15 CLO6 regimen.”
Criterion 2—Acute phase markers C-reactive protein (CRP) and erythrocyte sedimentation rate (ESR), which are standard parameters clinicians use to quantitate systemic inflammation in PMR. […]

[6] = Prior clinical trials of SPI-62 (without glucocorticoids); conditions: human, in vivo; based on data collected up to 2-2.5 weeks after cessation of SPI-62 administration in prior clinical trials; read-out: pharmacological half-life
Procedure: From Day 1 to Week 2, participants continue to receive prednisolone 10 mg and placebo for SPI-62, each daily. From Week 2 to Week 4, participants receive prednisolone, at a dose or randomized doses assigned per cohort, and SPI-62 6 mg, each daily. The order of treatments are not randomized due to the long pharmacological half-life of SPI-62, which is understood to be approximately 4-6 weeks based on data collected up to 2-2.5 weeks after cessation of SPI-62 administration in prior clinical trials. Participants are blinded to the order of treatments. Participants are enrolled in cohorts of approximately 12. • During Cohort 1, 12 participants received prednisolone 10 mg with SPI-62 6 mg. Two participants were erroneously dosed with SPI-62 on Day 1. […] Two participants' prednisolone dose was increased to 15 mg prior to Week 4 following adverse events of PMVR aggravated. Those two participants' data are represented in the Figures in the PRL15 CLO6 regimen. […] Those two participants' data are represented in the Figures only in the PRL10 regimen. • During Cohort 2, 12 participants received prednisolone 15 mg (50% dose adjustment) with SPI-62 6 mg. All also received prednisolone 10 mg with placebo for SPI-62. • During Cohort 3, 11 participants received prednisolone 20 mg (100% dose adjustment from Cohort 1) with clofutriben (i.e., SPI-62) 6 mg. […]

[7] = test system: patients with polymyalgia rheumatica (PMR); assay: Clinical trial in PMR: 13-plex cytokine panel; assay type: in vivo, human; conditions: SPI-62 6 mg co-administered with prednisolone; 2 weeks
Procedure: as §1
From Day 1 to Week 2, participants continue to receive prednisolone 10 mg and placebo for SPI-62, each daily. From Week 2 to Week 4, participants receive prednisolone, at a dose or randomized doses assigned per cohort, and SPI-62 6 mg, each daily. The order of treatments are not randomized due to the long pharmacological half-life of SPI-62, which is understood to be approximately 4-6 weeks based on data collected up to 2-2.5 weeks after cessation of SPI-62 administration in prior clinical trials. Participants are blinded to the order of treatments. Participants are enrolled in cohorts of approximately 12. • During Cohort 1, 12 participants received prednisolone 10 mg with SPI-62 6 mg. Two participants were erroneously dosed with SPI-62 on Day 1. […] Two participants' prednisolone dose was increased to 15 mg prior to Week 4 following adverse events of PMVR aggravated. Those two participants' data are represented in the Figures in the PRL15 CLO6 regimen. […] Those two participants' data are represented in the Figures only in the PRL10 regimen. • During Cohort 2, 12 participants received prednisolone 15 mg (50% dose adjustment) with SPI-62 6 mg. All also received prednisolone 10 mg with placebo for SPI-62. • During Cohort 3, 11 participants received prednisolone 20 mg (100% dose adjustment from Cohort 1) with clofutriben (i.e., SPI-62) 6 mg. All also received prednisolone 10 mg with placebo for SPI-62. […] That participant's data are represented in the Figures in the PRL10 and PRL10 CLO6 regimens. • During Cohort 4, 11 participants received prednisolone 30 mg (100% dose adjustment from Cohort 2) with clofutriben (i.e., SPI-62) 6 mg. • Two additional participants dropped out of the trial before they received clofutriben. Those participants' data are represented in the Figures in the PRL10 regimen. […]

[8] = test system: patients with diabetic peripheral neuropathy; conditions: SPI-62 without prednisolone, at 6 weeks, prior trials; cited from earlier work
[9] = prior trials, participants did not receive GCs; cited from earlier work
[10] = biological target: T1, hepatic HSD-1 (Homo sapiens, UniProt P28845); assay: Urinary ratio (tetrahydrocortisol+allotetrahydrocortisol)/tetrahydrocortisone, biomarker of hepatic HSD-1 activity; assay type: in vivo
T1 construct: confirm the pharmacological effect of SPI-62 on hepatic HSD-1 activity; from tissue; host or cells: liver (hepatocytes) of trial subjects, in vivo; read out through urinary steroid metabolites
Procedure: Data from all cohorts were analyzed together to confirm the pharmacological effect of SPI-62 on hepatic HSD-1 activity. In hepatocytes, 5- and 3-steroid reductases, the latter a liver-specific enzyme, convert cortisol and cortisone to tetrahydro metabolites which are excreted in urine. The urinary ratio (tetrahydrocortisol+allotetrahydrocortisol)/tetrahydrocortisone is an accepted biomarker of hepatic HSD-1 activity. Morning spot urine samples were collected at Baseline (BL), after 2 weeks of prednisolone 10 mg treatment (PRL), after 2 weeks of prednisolone 10-30 mg+clofutriben 6 mg treatment (PRL CLO6), and after 4 weeks washout following the last clofutriben dose (WO). […] The similarity between BL and PBO is an example of the repeatability of the HSD-1 ratio in spot urine samples.

[11] = PMR patients, change from baseline after 2 weeks daily treatment
[12] = co-administration with prednisolone at any prednisolone dose, 2 weeks
[13] = patients receiving prednisolone, relative to placebo

T1 sequence (P28845 whole entry): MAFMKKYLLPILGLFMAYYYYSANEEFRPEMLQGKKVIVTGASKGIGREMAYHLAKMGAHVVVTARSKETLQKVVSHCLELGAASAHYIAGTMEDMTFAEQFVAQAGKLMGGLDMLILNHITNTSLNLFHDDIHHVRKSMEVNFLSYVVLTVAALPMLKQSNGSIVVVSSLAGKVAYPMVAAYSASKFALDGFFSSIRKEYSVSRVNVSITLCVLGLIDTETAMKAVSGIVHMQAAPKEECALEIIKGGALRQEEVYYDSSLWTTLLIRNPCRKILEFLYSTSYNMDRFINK

Compound: C[C@@H]1C[C@H]2[C@@H]3CCC4=CC(=O)C=C[C@]4(C)[C@@]3(F)[C@@H](O)C[C@]2(C)[C@@]1(O)C(=O)CO [dexamethasone]
- ECG heart rate decrease [1]: approximately 12 bpm
- HDL cholesterol [1]: clinically meaningful increase
- LDL cholesterol [1]: not particularly sensitive
- triglycerides [1]: not particularly sensitive

Compound: C[C@]12C=CC(=O)C=C1CC[C@@H]1[C@@H]2[C@@H](O)C[C@@]2(C)[C@H]1CC[C@]2(O)C(=O)CO [prednisolone, reference compound]
- incidence of adverse events of PMR aggravated ([2]; participants with event/participants): 0/50
- PMR relapse (increase of PMR symptoms or disease activity such that a prednisolone dose increase was indicated) ([2]; participants with relapse/participants): 0/50
- HbA1c [3, 11]: decrease
- LDL cholesterol [3, 11]: encompassed zero
- cholesterol [3, 11]: encompassed zero
- triglycerides [3, 11]: encompassed zero

- half-life [6]: 28 to 42 days
- IL-1 receptor antagonist (IL-1RA) level [7]: did not show sensitivity to SPI-62
- hepatic HSD-1 inhibition after washout ([10]; 4 weeks after the last dose of SPI-62): Substantial hepatic HSD-1 inhibition
- hepatic HSD-1 inhibition ([10]; after 2 weeks of prednisolone 10-30 mg + clofutriben 6 mg): full hepatic HSD-1 inhibition
- urinary ratio (tetrahydrocortisol+allotetrahydrocortisol)/tetrahydrocortisone, mean value ([10]; morning spot urine after 2 weeks of prednisolone 10-30 mg + clofutriben 6 mg): ≤ 0.2
Compound: Cn1c(-c2ccc(C(N)=O)cc2F)nnc1C(C)(C)Oc1c(F)cc(Cl)cc1F [SPI-62, 4-(5-(2-(4-chloro-2,6-difluorophenoxy)propan-2-yl)-4-methyl-4H-1,2,4-triazol-3-yl)-3-fluorobenzamide]
- monocyte count [4, 11]: anticipated increases
- neutrophil count [4, 11]: anticipated increases
- platelet count [4, 11]: anticipated increases
- counts of circulating lymphoid cell types (B, IL-6R+, memory B, CD3+T, Th17, Treg) ([4]; SPI-62 6 mg co-administered with prednisolone, 2 weeks): decreases of all counted lineages, which were not fully ameliorated by prednisolone dose adjustment
- fibrinogen (PF) level [5]: increased
- granulocyte colony stimulating factor (G-CSF) level [7]: did not show sensitivity to SPI-62
- interferon gamma (IFNγ) level [7]: did not show sensitivity to SPI-62
- HbA1c [8]: clinically meaningful decrease
- effect on ECG heart rate [9]: No effect
- HOMA-IR [3, 11]: not sensitive
- HbA1c [3, 11]: not sensitive; also recorded: close to zero
- activated partial thromboplastin time (APTT) [3, 11]: improve
- bone formation biomarker BSAP [3, 11]: low sensitivity
- bone formation biomarker P1NP [3, 11]: increases
- bone formation biomarker osteocalcin (OC) [3, 11]: increases
- bone resorption biomarker CTX [3, 11]: decreases
- morning serum cortisol ([3]; PMR patients, change from baseline after 2 weeks daily treatment, compared to placebo): increase
- Prothrombin International Normalized Ratio (INR) [3, 12]: not observed to be sensitive
- Prothrombin Time (PT) [3, 12]: not observed to be sensitive
- plasma ACTH ([3]; patients receiving prednisolone, clofutriben compared to placebo): increase
- DHEA-S [3, 13]: increase, within or close to the reference range
- testosterone [3, 13]: increase, within or close to the reference range
- hypothalamic-pituitary-adrenal (HPA) axis ([3]; patients that received prednisolone): de-repression
